Data: patent US9846160B2, “Ganglioside GD2 as a marker and target on cancer stem cells” (Board of Regents, The University of Texas System, priority 2012, dated 2017)
“Also recorded” adds a separate entry of the source.

Key:
MDA-MB-231 cells [1] = experiment: Tumor growth inhibition and survival, MDA-MB-231 xenografts; type: in vivo, NOD/SCID mice; details: for tumor growth compared to control mice: after 4 weeks; for reduction in tumor volume: in 25% of mice, 0.15 mg/kg/day
Description: MDA-MB-231 cells (A) or SUM159 cells (B) (5×10^5/well) of 6 well cell culture dish was treated with 25 nM or 50 nM or 75 nM or 100 nM or 125 nM concentration of Triptolide for 24 hrs. Total RNA was extracted and GD3S expression was measured by real-time RT-PCR. (C) To measure GD2^+ cells growth inhibition, 5×10^5 MDA-MB-231 cells were plated in each well of 6 well cell culture dish and treated with 25 nM or 50 nM or 75 nM or 100 nM or 125 nM concentration of Triptolide for 48 hrs or 72 hrs. After incubation, the cells were detached with trypsin and stained with anti-GD2 antibody and Sytox-Red (for dead cells). The stained cells were analyzed on LSR-II flow cytometer. Absolute number of live cells were calculated by measuring 1000 events for True Count® beads as explained methods. (D) To determine the inhibition of tumor growth, 1×10^6 MDA-MB-231 cells were subcutaneously transplanted into NOD/SCID mice (n=8, 4 mice/group). A group of the mice were treated with 0.15 mg/kg/day of triptolide and the control group was treated with PBS everyday by intra peritoneal injections. At the end of 8 weeks, mice were sacrificed, tumors were dissected out and photographed. (E) Tumors sizes from the mice in experiment in FIG. 6D were measured every week after tumor engraftment and the measurements were shown in a line graph. (F) The survival analysis was based on Kaplan-Myer estimation and groups were compared by the log-rank test. Control (n=4, black line) and Triptolide (n=4, blue line), were analyzed for cumulative survival. Survival was defined as the time (in weeks) from transplant until death. P value represents the statistical significance.
For mRNA analysis 5×10^5 MDA-MB-231 or SUM159 breast cancer cell lines were incubated with triptolide (Alexis Biochemicals, San Diego, Calif.) at 25, 50, 75, 100 and 125 nM concentrations for 24 hrs at 37° C. in six-well cell culture dishes. For the growth inhibition studies, 3×10^5 MDA-MB-231 cells cultured in a 6 well tissue culture dishes were treated with triptolide at specified concentrations for either 24 hrs or 48 hrs. After incubation the cells were detached using trypsin and stained with anti-GD2 antibody (by indirect staining protocol) and pacific-blue conjugated Annexin-V (Invitrogen, Carlsbad, Calif.) following the manufactures instructions. The cells were analyzed in LSR-II flow cytometer (BD). The absolute number of cells were counted by measuring True Count® counting beads (Invitrogen) as per manufacturer's instructions. To examine tumor growth inhibition, survival of murine tumor xenografts was determined by subcutaneous administration of 1×10^6 MDA-MB-231 cells into 8-10 week old NOD/SCID mice. After growing for 2 weeks tumor xenografts reached a size of ˜50 mm^3 Thereafter, Triptolide (0.15 mg/Kg/day) was administered IP into the mice on a daily basis. The mice were sacrificed when the control tumors reached 2 cm or higher following institutional guidelines.
After the tumors reached 50 mm^3, the mice were randomly divided into two groups, and half of the mice treated with triptolide (0.15 mg/kg/day) while the other half were treated with PBS (control mice) every day by intraperitoneal injections. […] Fifty percent of triptolide treated breast tumors were completely tumor free and there was reduction in tumor volume by >8-fold in 25% of mice (FIG. 6D). In addition, tumors in triptolide treated mice were 3-fold smaller in size and 4-fold lighter by weight (FIG. 6E, FIG. 16). […] These findings indicate that […] plays a major role in regulating […] expression and the resulting GD2^+ population. Specifically, it affects cell proliferation and tumor initiation of GD2^+ breast cancer cells and when inhibited, greatly diminishes tumor growth and increases metastasis free survival of breast cancer bearing mice.

GD3S mRNA expression [2] = experiment: GD3S mRNA expression by real-time RT-PCR in MDA-MB-231 cells; type: cell-based, Human
Description: (§1) MDA-MB-231 cells (A) or SUM159 cells (B) (5×10^5/well) of 6 well cell culture dish was treated with 25 nM or 50 nM or 75 nM or 100 nM or 125 nM concentration of Triptolide for 24 hrs. Total RNA was extracted and GD3S expression was measured by real-time RT-PCR. (C) To measure GD2^+ cells growth inhibition, 5×10^5 MDA-MB-231 cells were plated in each well of 6 well cell culture dish and treated with 25 nM or 50 nM or 75 nM or 100 nM or 125 nM concentration of Triptolide for 48 hrs or 72 hrs. After incubation, the cells were detached with trypsin and stained with anti-GD2 antibody and Sytox-Red (for dead cells). The stained cells were analyzed on LSR-II flow cytometer. Absolute number of live cells were calculated by measuring 1000 events for True Count® beads as explained methods. […] (E) Tumors sizes from the mice in experiment in FIG. 6D were measured every week after tumor engraftment and the measurements were shown in a line graph. […] Control (n=4, black line) and Triptolide (n=4, blue line), were analyzed for cumulative survival. […]
(§2) For mRNA analysis 5×10^5 MDA-MB-231 or SUM159 breast cancer cell lines were incubated with triptolide (Alexis Biochemicals, San Diego, Calif.) at 25, 50, 75, 100 and 125 nM concentrations for 24 hrs at 37° C. in six-well cell culture dishes. […] The cells were analyzed in LSR-II flow cytometer (BD). […]

GD3S = details: melanoma cancer cell line; cited from earlier work
MDA-MB-231 cells [3] = experiment: GD2+ cell growth inhibition / apoptosis by flow cytometry after triptolide; type: cell-based, Human
Description: as §1, §2

GD3S mRNA expression [4] = experiment: GD3S mRNA expression by real-time RT-PCR in SUM159 cells; type: cell-based, Human; details: Sum159, 125 nM, 24 hr, dose dependent
Description: as §1, §2

[5] = 0.15 mg/kg/day intraperitoneal, listed as triptolide

**Q.** Which “treated breast tumors completely tumor free” value (MDA-MB-231 cells [1]; 0.15 mg/kg/day intraperitoneal) does the source give for `CC(C)[C@]12O[C@H]1[C@@H]1O[C@]13[C@]1(O[C@H]1C[C@H]1C4=C(CC[C@@]13C)C(=O)OC4)[C@@H]2O` [Triptolide] here?
**A.** The value was “Fifty”.

**Q.** What about the “tumors lighter by weight vs control” value (MDA-MB-231 cells [1]; 0.15 mg/kg/day intraperitoneal) of the same molecule?
**A.** Its value is 4 fold.

**Q.** What about the “tumors smaller in size vs control” value (MDA-MB-231 cells [1]; 0.15 mg/kg/day intraperitoneal) of the same molecule?
**A.** The value was 3 fold.

**Q.** And the “tumor growth compared to control mice” value (MDA-MB-231 cells [1]; 0.15 mg/kg/day intraperitoneal)?
**A.** The value was “blocks tumor growth”.

**Q.** What about the “tumor growth compared to control mice” value (MDA-MB-231 cells [1]; [5]) of the same molecule?
**A.** The value was “dramatic decrease in tumor growth”.

**Q.** What about the tumor mass (MDA-MB-231 cells [1]; FIG. 16, p<0.01) of the same molecule?
**A.** The tumor mass was “reduces tumor mass”.

**Q.** What about the “reduction in tumor volume” value (MDA-MB-231 cells [1]; 0.15 mg/kg/day intraperitoneal) of the same molecule?
**A.** The value was 7- to 8 fold.

**Q.** What about the “reduction in tumor volume” value (MDA-MB-231 cells [1]; [5]) of the same molecule?
**A.** Its value is over 8 fold.

**Q.** What about the “mice in which tumors were eliminated” value (MDA-MB-231 cells [1]; intra-peritoneal administration) of the same molecule?
**A.** The value was 50%.

**Q.** What about the “survival of treated mice” value (MDA-MB-231 cells [1]; repeat experiment, Log-rank control vs triptolide p=0.0015) of the same molecule?
**A.** The value was “significantly prolonged survival”.

**Q.** And the “inhibition of GD3S mRNA expression” value (GD3S mRNA expression [2]; MDA-MB-231, 125 nM, 24 hr, dose dependent)?
**A.** Its value is over 95%.

**Q.** And the “inhibition of GD3S expression” value (GD3S mRNA expression [2]; breast cancer cells, dose dependent manner (summary))?
**A.** Its value is over 95%.

**Q.** What about the “inhibition of GD3S” value (GD3S) of the same molecule?
**A.** Its value is “has been shown to inhibit GD3S”.

**Q.** And the “decrease of GD2+ cells (absolute cell counts)” value (MDA-MB-231 cells [3]; MDA-MB-231, different concentrations, 24 or 48 hours)?
**A.** Its value is “dose dependent and time dependent decrease of GD2^+ cells”.

**Q.** What about the induction of apoptosis (MDA-MB-231 cells [3]; breast cancer cells / MDA-MB-231) of the same molecule?
**A.** The induction of apoptosis was “induce apoptosis in MDA-MB-231 cells; also recorded: induced apoptosis in a time dependent manner”.

**Q.** And the “inhibition of GD3S mRNA expression” value (GD3S mRNA expression [4])?
**A.** The value was over 95%.
